The nature of series [1]: Reduction in PICP levels in human cardiac fibroblasts incubated for 24 to 48 hrs by ELISA. The class given is functional. (An ELISA detects its analyte on a solid surface through an enzyme-linked reagent.)
A short description of series [2]: Reduction in mature collagen deposition levels in human cardiac fibroblasts incubated for 24 to 48 hrs by immunostaining based assay. It counts as functional.
A short description of series [3]: Drug metabolism in heparinized pooled human plasma at pH 7.5 assessed as formation of ((2-ethoxy-4-(5-((((R)-2-((R)-1-(N-hydroxyformamido)propyl)heptanamido)methyl)carbamoyl)furan-2-yl)benzamido)methyl)phosphonic acid at 100 to 2000 ng/ml incubated up to 4 or 24 hrs by LC-MS/MS analysis. It counts as ADME, cell-free. To be noted: pH 7.5, 24 h.
Series [4] is described as follows: Drug metabolism in heparinized pooled human plasma at pH 7.5 assessed as formation of 4-(5-((((R)-2-((R)-1-(N-hydroxyformamido) propyl)heptanamido)methyl)carbamoyl)furan-2-yl)benzoic acid at 100 to 2000 ng/ml incubated up to 4 or 24 hrs by LC-MS/MS analysis. To be noted: pH 7.5, 24 h. It counts as ADME, cell-free.
The nature of series [5]: Drug metabolism in heparinized pooled human plasma at pH 7.5 assessed as formation of (((3-ethoxy-5-(5-((((R)-2-((R)-1-(N-hydroxyformamido)propyl)heptanamido)methyl)carbamoyl)furan-2-yl)phenyl)(hydroxy)phosphoryl)oxy)methyl isopropyl carbonate at 100 to 2000 ng/ml incubated up to 4 or 24 hrs by LC-MS/MS analysis. To be noted: pH 7.5, 24 h. The class given is ADME, cell-free.

From ChEMBL document CHEMBL4418493, “N-hydroxyformamide compounds and compositions comprising them for use as BMP1, TLL1 and/or TLL2 inhibitors” (2018) come the findings set out here.

Where only a bound is given, the exact number is not on record here.

Usually IC50 stands for the concentration that gives 50% inhibition. A low value points to higher potency. Take `CCCCC[C@@H](C(=O)NCNC(=O)c1ccc(-c2ccc(C(=O)NCP(=O)(O)O)c(OCC)c2)o1)[C@@H](CC)N(C=O)OC(=O)c1ccc(OC)cc1`: the IC50 is less than 3.98 µM in series [1] and less than 1 µM in series [2]. Further, the Drug metabolism entry in series [3] is recorded as “Metabolite_Detected”.
Take `CCCCC[C@@H](C(=O)NCNC(=O)c1ccc(-c2ccc(C(=O)NCP(=O)(O)O)c(OCC)c2)o1)[C@@H](CC)N(C=O)OC(=O)c1ccc(CN2CCOCC2)cc1C.O=C(O)C(F)(F)F`: the concentration for half-maximal inhibition (IC50) in series [1] is less than 3.98 µM. Besides, the Drug metabolism entry in series [3] is on record as “Metabolite_Detected”.
Compound `CCCCC[C@@H](C(=O)NCNC(=O)c1ccc(-c2ccc(C(=O)OCC(=O)N(C)C)cc2)o1)[C@@H](CC)N(O)C=O` showed an IC50 in series [1] of less than 3.98 µM. Further, the Drug metabolism result in series [4] is “Metabolite_Detected”.
The matching figures for `CCCCC[C@@H](C(=O)NCNC(=O)c1ccc(-c2ccc(C(=O)OCCc3ccccc3)cc2)o1)[C@@H](CC)N(O)C=O`: less than 3.98 µM and “Metabolite_Detected”.
Taken in the same sequence, the figures for `CCCCC[C@@H](C(=O)NCNC(=O)c1ccc(-c2ccc(C(=O)OCCN3CCOCC3)cc2)o1)[C@@H](CC)N(O)C=O` were less than 3.98 µM and “Metabolite_Detected”.
`CCCCC[C@@H](C(=O)NCNC(=O)c1ccc(-c2ccc(C(=O)NCP(=O)(O)O)c(OCC)c2)o1)[C@@H](CC)N(C=O)OC(=O)c1ccc(OC)cc1C`: the IC50 in series [1] was less than 3.98 µM. Further, in series [3], the Drug metabolism entry was “Metabolite_Detected”.
Taken in the same sequence, the figures for `CCCCC[C@@H](C(=O)NCNC(=O)c1ccc(-c2ccc(C(=O)NCP(=O)(O)O)c(OCC)c2)o1)[C@@H](CC)N(C=O)OC(=O)c1ccccc1` were less than 3.98 µM and “Metabolite_Detected”.
`CCCCC[C@@H](C(=O)NCNC(=O)c1ccc(-c2ccc(C(=O)O)cc2)o1)[C@@H](CC)N(C=O)OC(=O)c1ccccc1`: the Drug metabolism result in series [4] was “Metabolite_Detected”.
For the compound `CCCCC[C@@H](C(=O)NCNC(=O)c1ccc(-c2cc(OCC)cc(P(=O)(OCOC(=O)OC(C)C)OCOC(=O)OC(C)C)c2)o1)[C@@H](CC)N(O)C=O`, in series [5], the Drug metabolism entry is reported as “Metabolite_Detected”.
